Drawing on ChEMBL document CHEMBL3286249 (Eur J Med Chem, 2014), this text covers Ki for 20 molecules.

The structures appear in SMILES notation.

Chain of Carbonic anhydrase 1 (P00915 whole entry): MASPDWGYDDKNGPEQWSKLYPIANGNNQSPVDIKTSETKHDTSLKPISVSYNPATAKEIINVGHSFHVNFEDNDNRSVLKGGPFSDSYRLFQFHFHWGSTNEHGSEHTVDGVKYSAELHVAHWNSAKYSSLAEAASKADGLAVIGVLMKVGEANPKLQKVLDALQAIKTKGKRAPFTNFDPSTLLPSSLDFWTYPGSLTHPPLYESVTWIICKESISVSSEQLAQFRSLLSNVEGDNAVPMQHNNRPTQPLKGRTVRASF
Chain of Carbonic anhydrase 12 (O43570 whole entry): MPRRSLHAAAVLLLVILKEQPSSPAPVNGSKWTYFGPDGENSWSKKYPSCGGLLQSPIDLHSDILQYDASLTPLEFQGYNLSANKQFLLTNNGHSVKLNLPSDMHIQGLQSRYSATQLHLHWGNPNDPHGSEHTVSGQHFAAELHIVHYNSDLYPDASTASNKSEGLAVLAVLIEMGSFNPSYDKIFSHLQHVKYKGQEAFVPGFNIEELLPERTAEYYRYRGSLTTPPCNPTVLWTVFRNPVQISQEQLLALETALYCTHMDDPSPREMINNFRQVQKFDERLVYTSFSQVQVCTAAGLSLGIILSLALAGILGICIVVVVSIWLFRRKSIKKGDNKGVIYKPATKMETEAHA

The first test has as its target Carbonic anhydrase 12 (Homo sapiens, UniProt O43570).
The Ki is the dissociation constant of the complex between target and ligand, obtained from inhibition or displacement. A high value points to weaker binding. As to `Cc1nnc(-c2cc(S(N)(=O)=O)c(Cl)cc2Cl)o1`, the affinity corresponds to a Ki of 0.0063 µM.

Another test addresses Carbonic anhydrase 2 (Homo sapiens, UniProt P00918).
`Cc1nnc(-c2cc(S(N)(=O)=O)c(Cl)cc2Cl)o1` displayed a Ki of 0.0087 µM.

The target of a further test is Carbonic anhydrase 9 (Homo sapiens, UniProt Q16790).
In turn, `NS(=O)(=O)c1cc(NC(=O)Nc2ccc(Cl)cc2)c(Cl)cc1Cl` yielded a Ki of 0.0071 µM.
Still for that read-out and setting: the result for `NS(=O)(=O)c1cc(-c2nnc(-c3ccc(Cl)cc3)o2)c(Cl)cc1Cl` reads 0.0109 µM.
`NS(=O)(=O)c1cc(-c2nnc(-c3ccccc3)s2)c(Cl)cc1Cl`: the Ki was determined as 0.0136 µM.
Regarding `Cc1ccc(C(=O)NNC(=O)c2cc(S(N)(=O)=O)c(Cl)cc2Cl)cc1`, affinity was put at a Ki of 0.0055 µM.
The same measure, in the same setting: the result for `NS(=O)(=O)c1cc(NC(=O)NOCc2ccccc2)c(Cl)cc1Cl` reads 0.0189 µM.
Molecule `NS(=O)(=O)c1cc(-c2nnc(Nc3ccc(Cl)cc3)o2)c(Cl)cc1Cl` showed a Ki of 0.0151 µM.
Turning to `NS(=O)(=O)c1cc(-c2nnc(Nc3ccccc3)o2)c(Cl)cc1Cl`, affinity was put at a Ki of 0.0138 µM.
On the same count and under the same terms, the result for `NS(=O)(=O)c1cc(NC(=O)NCCCN2CCOCC2)c(Cl)cc1Cl` reads 0.038 µM; that for `NS(=O)(=O)c1cc(NC(=O)Nc2ccccc2)c(Cl)cc1Cl`, 0.007 µM.
As to `NS(=O)(=O)c1cc(NC(=O)N2CCN(Cc3ccc4c(c3)OCO4)CC2)c(Cl)cc1Cl`, the Ki was determined as 0.076 µM.
The same measure, in the same setting: the result for `Cc1ccc(S(=O)(=O)NC(=O)NNC(=O)c2cc(S(N)(=O)=O)c(Cl)cc2Cl)cc1` reads 0.0153 µM.
`NS(=O)(=O)c1cc(NC(=O)NNC(=O)c2ccccc2)c(Cl)cc1Cl` returned a Ki of 0.0125 µM.
Same read-out and setting: the result for `NS(=O)(=O)c1cc(-c2nnc(-c3ccccc3)[nH]2)c(Cl)cc1Cl` reads 0.0097 µM; that for `NS(=O)(=O)c1cc(C(=O)NNC(=S)Nc2ccc(Cl)cc2)c(Cl)cc1Cl`, 0.027 µM; that for `NS(=O)(=O)c1cc(C(=O)NNC(=O)c2ccccc2)c(Cl)cc1Cl`, 0.0102 µM.
Take `NS(=O)(=O)c1cc(C(=O)NNC(=O)c2ccco2)c(Cl)cc1Cl`: the Ki worked out at 0.0039 µM.
With `NS(=O)(=O)c1ccc(NC(=O)Nc2cc(S(N)(=O)=O)c(Cl)cc2Cl)cc1`, the Ki amounted to 0.0158 µM.
Same read-out and setting: the result for `NS(=O)(=O)c1cc(-c2nnc(-c3ccccc3)o2)c(Cl)cc1Cl` reads 0.0132 µM; that for `NS(=O)(=O)c1cc(C(=O)NNC(=S)Nc2ccccc2)c(Cl)cc1Cl`, 0.031 µM.

A further test concerns the target Carbonic anhydrase 1 (Homo sapiens, UniProt P00915).
Regarding `Cc1nnc(-c2cc(S(N)(=O)=O)c(Cl)cc2Cl)o1`, the Ki was determined as 0.718 µM.
